Experiments:
Thrombopoietin receptor = target: T1, Thrombopoietin receptor (Homo sapiens, UniProt P40238); experiment: Agonist activity at human thrombopoietin receptor in Ba/F3 cells assessed as activation of Stat5 response element-driven reporter gene expression; format: functional, cell-based, BaF3
T1 sequence (P40238 whole entry): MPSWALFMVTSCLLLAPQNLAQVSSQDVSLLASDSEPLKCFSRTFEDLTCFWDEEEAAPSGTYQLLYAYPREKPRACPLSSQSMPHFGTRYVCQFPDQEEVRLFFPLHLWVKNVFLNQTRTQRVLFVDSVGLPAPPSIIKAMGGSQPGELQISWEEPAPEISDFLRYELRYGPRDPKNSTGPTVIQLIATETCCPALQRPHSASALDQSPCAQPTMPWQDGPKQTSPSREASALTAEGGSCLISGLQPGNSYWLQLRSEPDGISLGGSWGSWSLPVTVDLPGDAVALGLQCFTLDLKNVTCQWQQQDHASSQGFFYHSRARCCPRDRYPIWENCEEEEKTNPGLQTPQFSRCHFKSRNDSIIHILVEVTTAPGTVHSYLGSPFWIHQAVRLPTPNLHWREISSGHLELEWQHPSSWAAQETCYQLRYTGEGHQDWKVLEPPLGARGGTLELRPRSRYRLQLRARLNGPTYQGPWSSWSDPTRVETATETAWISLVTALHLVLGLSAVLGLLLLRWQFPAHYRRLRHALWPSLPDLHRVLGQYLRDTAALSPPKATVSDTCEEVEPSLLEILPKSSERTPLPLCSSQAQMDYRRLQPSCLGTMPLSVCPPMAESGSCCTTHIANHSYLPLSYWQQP

[1] = Bioavailability in BALB/c mouse at 20 mg/kg, po; format: ADME, organism-based; conditions: in vivo
[2] = target: T2, Thrombopoietin receptor (Homo sapiens) (UniProt P40238); experiment: Agonist activity at human thrombopoietin receptor in Ba/F3 cells assessed as activation of Stat5 response element-driven reporter gene expression relative to 30 ng/mL thrombopoietin; format: functional, cell-based; conditions: BaF3
T2 sequence (whole entry): T1 sequence (P40238 whole entry)

[3] = Cmax in BALB/c mouse at 20 mg/kg, po; format: ADME, organism-based; set-up: dose 20 mg/kg, route oral; conditions: in vivo
[4] = Half life in BALB/c mouse at 20 mg/kg, po; format: ADME, organism-based; set-up: dose 20 mg/kg, route oral; conditions: in vivo

## Cn1c2ccccc2c2ccc3cc(C(=O)O)c(O)cc3c21
Thrombopoietin receptor
  EC50: > 30000 nM

## O=C(O)c1cc2c(cc1O)-c1[nH]c3cccc(-c4ccccc4)c3c1CC2
Thrombopoietin receptor
  EC50: > 30000 nM

## Cc1cc(C)cc(-c2ccc3c4c([nH]c3c2)-c2cc(O)c(C(=O)O)cc2CC4)c1
[1]
  bioavailability: 10%
[2]
  Efficacy: 128%
[3]
  Cmax: 2000 nM
[4]
  half-life: 4.1 h
Thrombopoietin receptor
  EC50: 67 nM

## Cc1ccc(-c2ccc3c4c([nH]c3c2)-c2cc(O)c(C(=O)O)cc2CC4)cc1C
[2]
  Efficacy: 127%
Thrombopoietin receptor
  EC50: 65 nM

## O=C(O)c1cc2ccc3c4ccc(C(F)(F)F)cc4[nH]c3c2cc1O
[2]
  Efficacy: 128%
Thrombopoietin receptor
  EC50: 143 nM

## O=C(O)c1cc2ccc3c4ccccc4[nH]c3c2cc1O
[2]
  Efficacy: 100%
Thrombopoietin receptor
  EC50: 3400 nM

## O=C(O)c1cc2c(cc1O)-c1[nH]c3c(F)ccc(C(F)(F)F)c3c1CC2
[2]
  Efficacy: 101%
Thrombopoietin receptor
  EC50: 799 nM

## O=C(O)c1cc2c(cc1O)-c1[nH]c3cc(-c4cccc(C(F)(F)F)c4)ccc3c1CC2
[2]
  Efficacy: 127%
Thrombopoietin receptor
  EC50: 148 nM

## O=C(O)c1cc2c(cc1O)-c1[nH]c3c(C(F)(F)F)cccc3c1CC2
[2]
  Efficacy: 37%
Thrombopoietin receptor
  EC50: 7830 nM

## Cc1cccc(C)c1-c1ccc2c3c([nH]c2c1)-c1cc(O)c(C(=O)O)cc1CC3
[2]
  Efficacy: 30%
Thrombopoietin receptor
  EC50: 232 nM

## O=C(O)c1ccc2c3c([nH]c2c1)-c1cc(O)c(C(=O)O)cc1CC3
[2]
  Efficacy: 74%
Thrombopoietin receptor
  EC50: 7790 nM

## CCCCc1ccc(-c2ccc3c4c([nH]c3c2)-c2ccc(C(=O)N(C)C)cc2CC4)cc1
[2]
  Efficacy: 132%
Thrombopoietin receptor
  EC50: 127 nM

## CCCOc1ccc(-c2ccc3c4c([nH]c3c2)-c2cc(O)c(C(=O)O)cc2CC4)cc1
[2]
  Efficacy: 129%
Thrombopoietin receptor
  EC50: 41 nM

## CCCCc1ccc(-c2ccc3c4c([nH]c3c2F)-c2ccc(C(=O)O)cc2CC4)cc1
[2]
  Efficacy: 140%
Thrombopoietin receptor
  EC50: 55 nM

## COc1cc2c(ccc3c4ccccc4[nH]c23)cc1C(=O)O
Thrombopoietin receptor
  EC50: > 30000 nM

## Cc1cc(-c2ccc3c4c([nH]c3c2F)-c2ccc(C3=NCCN3)cc2CC4)ccc1F
Thrombopoietin receptor
  EC50: > 30000 nM

## Cc1cc(-c2ccc3c4c([nH]c3c2)-c2cc(O)c(C(=O)O)cc2CC4)ccc1F
[2]
  Efficacy: 126%
Thrombopoietin receptor
  EC50: 35 nM

## O=C(O)c1cc2c(cc1O)-c1[nH]c3ccc(C(F)(F)F)cc3c1CC2
[2]
  Efficacy: 115%
Thrombopoietin receptor
  EC50: 333 nM

## CCCCc1ccc(-c2ccc3c4c([nH]c3c2)-c2cc(O)c(C(=O)O)cc2CC4)cc1
[2]
  Efficacy: 143%
Thrombopoietin receptor
  EC50: 26 nM

## O=C(O)c1cc2c(cc1O)-c1[nH]c3ccc(-c4ccccc4)cc3c1CC2
[2]
  Efficacy: 68%
Thrombopoietin receptor
  EC50: 569 nM

## O=C(O)c1cc2c(cc1O)-c1[nH]c3cc(C(F)(F)F)ccc3c1CC2
[2]
  Efficacy: 96%
Thrombopoietin receptor
  EC50: 473 nM

## O=C(O)c1cc2c(cc1O)-c1[nH]c3cc(C4CCCCC4)ccc3c1CC2
Thrombopoietin receptor
  EC50: > 30000 nM

## CCCCc1ccc(-c2ccc3c4c([nH]c3c2)-c2ccc(-c3nnn[nH]3)cc2CC4)cc1
[2]
  Efficacy: 128%
Thrombopoietin receptor
  EC50: 119 nM

## O=C(O)c1cc2c(cc1O)-c1[nH]c3cc(-c4ccccc4)ccc3c1CC2
[2]
  Efficacy: 136%
Thrombopoietin receptor
  EC50: 373 nM

## Cc1cccc(-c2ccc3c4c([nH]c3c2)-c2cc(O)c(C(=O)O)cc2CC4)c1
[2]
  Efficacy: 128%
Thrombopoietin receptor
  EC50: 194 nM

## Cc1ccc2c(c1)[nH]c1c3cc(O)c(CC(=O)O)cc3ccc21
[2]
  Efficacy: 70%
Thrombopoietin receptor
  EC50: 9200 nM

## Cc1ccc(-c2ccc3c4c([nH]c3c2)-c2cc(O)c(C(=O)O)cc2CC4)cc1
[2]
  Efficacy: 154%
Thrombopoietin receptor
  EC50: 109 nM

## CCCCc1ccc(-c2ccc3c4c([nH]c3c2)-c2ccc(C(=O)O)cc2CC4)cc1
[2]
  Efficacy: 141%

## N#Cc1ccc2[nH]c3c(c2c1)CCc1cc(C(=O)O)c(O)cc1-3
Thrombopoietin receptor
  EC50: > 30000 nM

## OCc1cc2ccc3c4ccccc4[nH]c3c2cc1O
Thrombopoietin receptor
  EC50: > 30000 nM

## CCCOc1cccc(-c2ccc3c4c([nH]c3c2)-c2cc(O)c(C(=O)O)cc2CC4)c1
[2]
  Efficacy: 147%
Thrombopoietin receptor
  EC50: 43 nM

## COC(=O)c1cc2ccc3c4ccccc4[nH]c3c2cc1O
[2]
  Efficacy: 11%
Thrombopoietin receptor
  EC50: 1300 nM

## Cc1ccc2c(c1)[nH]c1c3cc(O)c(C(=O)O)cc3ccc21
[2]
  Efficacy: 76%
Thrombopoietin receptor
  EC50: 870 nM

## COCc1ccc(-c2ccc3c4c([nH]c3c2)-c2cc(O)c(C(=O)O)cc2CC4)cc1
[2]
  Efficacy: 132%
Thrombopoietin receptor
  EC50: 452 nM

## CCCCc1ccc(-c2ccc3c4c([nH]c3c2)-c2ccc(C(N)=O)cc2CC4)cc1
[2]
  Efficacy: 111%
Thrombopoietin receptor
  EC50: 76 nM

## CN(C)c1ccc(-c2ccc3c4c([nH]c3c2)-c2cc(O)c(C(=O)O)cc2CC4)cc1
[2]
  Efficacy: 136%
Thrombopoietin receptor
  EC50: 284 nM

Reference: ChEMBL document CHEMBL1144200, “Discovery and biological evaluation of benzo[a]carbazole-based small molecule agonists of the thrombopoietin (Tpo) receptor” (Bioorg Med Chem Lett, 2008)
